In US8993574B2, “Pyrrole antifungal agents” (F2G Ltd, priority 2008, dated 2015):
In brackets after ≈: the same amount, converted by molar mass.

Tests used:
Type in all cases: cell-based
[1] = test system: Aspergillus fumigatus AF293; test: MIC, YAG medium; settings: 24 h at 35° C, MIC banded into grades; for MIC: Aspergillus fumigatus, read-out: MIC grade, A. fumigatus
Outline: (§1)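 MICs (mg/L) derive from the lowest compound concentration suppressing spore outgrowth by >70% against a drug-free well, by OD 485 nm. Conditions: YAG medium, 1−2×10^4 cfu/mL, 24 h, 35° C, two-fold dilutions from 50 mg/L.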

Aspergillus terreus AT49 [2] = test: MIC, YAG medium; settings: 24 h at 35° C, MIC banded into grades; for MIC: Aspergillus terreus, read-out: MIC grade, A. terreus 49
Outline: as §1

[3] = test system: Aspergillus fumigatus AF210; test: MIC, YAG medium; settings: 24 h at 35° C, MIC banded into grades; for MIC: Aspergillus fumigatus, read-out: MIC grade, A. fumigatus 210
Outline: as §1

Aspergillus niger [4] = test: MIC, YAG medium; settings: 24 h at 35° C, MIC banded into grades; for MIC: Aspergillus niger, read-out: MIC grade, A. niger
Outline: as §1

Aspergillus flavus [5] = test: MIC, YAG medium; settings: 24 h at 35° C, MIC banded into grades; for MIC: Aspergillus flavus, 24 h, read-out: MIC grade, A. flavus
Outline: as §1

Aspergillus terreus AT4 [6] = test: MIC, YAG medium; settings: 24 h at 35° C, MIC banded into grades; for MIC: Aspergillus terreus, read-out: MIC grade, A. terreus
Outline: as §1

[7] = test system: Aspergillus fumigatus AF293; test: MIC, RPMI medium; settings: for MIC: Aspergillus fumigatus, AF293, MIC banded into grades, read-out: MIC grade, A. fumigatus
Outline: (§2)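 Fungi are tested in RPMI buffered with 0.135 M MOPS (pH 7.0) plus 2% glucose, inoculum 1−2×10^4 cfu/mL, against doubling compound dilutions spanning 50-0.05 mg/L. After 24-48 h at 35° C, the MIC is the lowest concentration suppressing growth by >80% against drug-free control.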

Aspergillus terreus AT49 [8] = test: MIC, RPMI medium; settings: for MIC: Aspergillus terreus, AT49, MIC banded into grades, read-out: MIC grade, A. terreus 49
Outline: as §2

[9] = test system: Aspergillus fumigatus AF210; test: MIC, RPMI medium; settings: for MIC: Aspergillus fumigatus, AF210, MIC banded into grades, read-out: MIC grade, A. fumigatus 210
Outline: as §2

Aspergillus niger [10] = test: MIC, RPMI medium; settings: MIC banded into grades; for MIC: Aspergillus niger, read-out: MIC grade, A. niger
Outline: as §2

Aspergillus flavus [11] = test: MIC, RPMI medium; settings: MIC banded into grades; for MIC: Aspergillus flavus, read-out: MIC grade, A. flavus
Outline: as §2

Aspergillus terreus AT4 [12] = test: MIC, RPMI medium; settings: for MIC: Aspergillus terreus, AT4, MIC banded into grades, read-out: MIC grade, A. terreus
Outline: as §2

Row | Structure (SMILES) | MIC [1] [µg/mL] | MIC (Aspergillus terreus AT49 [2]) [µg/mL] | MIC [3] [µg/mL] | MIC (Aspergillus niger [4]) [µg/mL] | MIC (Aspergillus flavus [5]) [µg/mL] | MIC (Aspergillus terreus AT4 [6]) [µg/mL] | MIC [7] [µg/mL] | MIC (Aspergillus terreus AT49 [8]) [µg/mL] | MIC [9] [µg/mL] | MIC (Aspergillus niger [10]) [µg/mL] | MIC (Aspergillus flavus [11]) [µg/mL] | MIC (Aspergillus terreus AT4 [12]) [µg/mL] | further results
1 | COCCn1c(C(C)C)cc(-c2ccccc2)c1C(=O)C(=O)Nc1ccc(N2CCN(c3cc(C)cc(C)n3)CC2)cc1 [Example 78, N-{4-[4-(4,6-Dimethyl-pyridin-2-yl)-piperizin-1-yl]-phenyl}-2-[5-isopropyl-1-(2-methoxy-ethyl)-3-phenyl-1H-pyrrol-2-yl]-2-oxo-acetamide] |  |  |  |  |  |  |  |  |  |  |  |  | MIC grade, A. fumigatus [1]: 1 (a grade of 1 represents an MIC of greater than 10 mg/L); MIC grade, A. terreus 49 (Aspergillus terreus AT49 [2]): 2 (A grade of 2 represents an MIC of from 1 to 10 mg/L); MIC grade, A. fumigatus 210 [3]: 1 (a grade of 1 represents an MIC of greater than 10 mg/L); MIC grade, A. niger (Aspergillus niger [4]): 1 (a grade of 1 represents an MIC of greater than 10 mg/L); MIC grade, A. flavus (Aspergillus flavus [5]): 1 (a grade of 1 represents an MIC of greater than 10 mg/L); MIC grade, A. terreus (Aspergillus terreus AT4 [6]): 1 (a grade of 1 represents an MIC of greater than 10 mg/L); MIC grade, A. fumigatus ([7]; MIC banded into grades): 1 (a grade of 1 represents an MIC of greater than 10 mg/L); MIC grade, A. terreus 49 (Aspergillus terreus AT49 [8]; MIC banded into grades): 1 (a grade of 1 represents an MIC of greater than 10 mg/L); MIC grade, A. fumigatus 210 ([9]; MIC banded into grades): 1 (a grade of 1 represents an MIC of greater than 10 mg/L); MIC grade, A. niger (Aspergillus niger [10]): 1 (a grade of 1 represents an MIC of greater than 10 mg/L); MIC grade, A. flavus (Aspergillus flavus [11]): 1 (a grade of 1 represents an MIC of greater than 10 mg/L); MIC grade, A. terreus (Aspergillus terreus AT4 [12]; MIC banded into grades): 1 (a grade of 1 represents an MIC of greater than 10 mg/L)
2 | Cc1cc(C)nc(N2CCN(c3ccc(NC(=O)C(=O)c4ccc(C)[nH]4)cc3)CC2)c1 [Example 4, N-{4-[4-(4,6-Dimethyl-pyridin-2-yl)-piperazin-1-yl]-phenyl}-2-(5-methyl-1H-pyrrol-2-yl)-2-oxo-acetamide] | 1 to 10 (≈ 2.4 to 24 µM) | 1 to 10 (≈ 2.4 to 24 µM) | 1 to 10 (≈ 2.4 to 24 µM) | 1 to 10 (≈ 2.4 to 24 µM) | 1 to 10 (≈ 2.4 to 24 µM) | > 10 | > 10 | > 10 | > 10 | > 10 | > 10 | > 10 | 
3 | Cc1cc(-c2ccccc2)c(C(=O)C(=O)Nc2cccc3c2CCO3)n1C [Example 23, N-(2,3-Dihydro-benzofuran-4-yl)-2-(1,5-dimethyl-3-phenyl-1H-pyrrol-2-yl)-2-oxo-acetamide] | < 1 | < 1 | 1 to 10 (≈ 2.77 to 27.7 µM) | < 1 | < 1 | < 1 | 1 to 10 (≈ 2.77 to 27.7 µM) | < 1 | 1 to 10 (≈ 2.77 to 27.7 µM) | 1 to 10 (≈ 2.77 to 27.7 µM) | < 1 | < 1 | 
4 | Cc1cc(C)nc(N2CCN(c3ccc(NC(=O)C(=O)c4c(-c5ccccc5)cc(C)n4C)cc3COCCCN3CCN(C)CC3)CC2)c1 [Example 19, 2-(1,5-Dimethyl-3-phenyl-1H-pyrrol-2-yl)-N-{4-[4-(4,6-dimethyl-pyridin-2-yl)-piperazin-1-yl]-3-[3-(4-methyl-piperazin-1-yl)-propoxymethyl]-phenyl}-2-oxo-acetamide] | > 10 | 1 to 10 (≈ 1.48 to 14.8 µM) | > 10 | > 10 | 1 to 10 (≈ 1.48 to 14.8 µM) | > 10 | > 10 | > 10 | > 10 | > 10 | > 10 | > 10 | 
5 | CCOCCn1c(C)cc(-c2ccccc2)c1C(=O)C(=O)Nc1ccc(N2CCN(c3cc(C)cc(C)n3)CC2)cc1 [Example 27, N-{4-[4-(4,6-Dimethyl-pyridin-2-yl)-piperazin-1-yl]-phenyl}-2-[1-(2-ethoxy-ethyl)-5-methyl-3-phenyl-1H-pyrrol-2-yl]-2-oxo-acetamide] | < 1 | 1 to 10 (≈ 1.77 to 17.7 µM) | < 1 | 1 to 10 (≈ 1.77 to 17.7 µM) | > 10 | 1 to 10 (≈ 1.77 to 17.7 µM) | 1 to 10 (≈ 1.77 to 17.7 µM) | > 10 | 1 to 10 (≈ 1.77 to 17.7 µM) | 1 to 10 (≈ 1.77 to 17.7 µM) | > 10 | > 10 | 
6 | Cc1cc(C)nc(N2CCN(c3ccc(NC(=O)C(=O)c4c(-c5ccccc5)c(C)cn4C)cc3)CC2)c1 [Example 18, 2-(1,4-Dimethyl-3-phenyl-1H-pyrrol-2-yl)-N-{4-[4-(4,6-dimethyl-pyridin-2-yl)-piperazin-1-yl]-phenyl}-2-oxo-acetamide] | < 1 | < 1 | < 1 | > 10 | < 1 | < 1 | < 1 | < 1 | < 1 | > 10 | 1 to 10 (≈ 1.97 to 19.7 µM) | < 1 | 

Further lines, with some results ahead:

Row | MIC [1] [µg/mL] | MIC (Aspergillus terreus AT49 [2]) [µg/mL] | MIC [3] [µg/mL] | MIC (Aspergillus niger [4]) [µg/mL] | MIC (Aspergillus flavus [5]) [µg/mL] | MIC (Aspergillus terreus AT4 [6]) [µg/mL] | MIC [7] [µg/mL] | MIC (Aspergillus terreus AT49 [8]) [µg/mL] | MIC [9] [µg/mL] | MIC (Aspergillus niger [10]) [µg/mL] | MIC (Aspergillus flavus [11]) [µg/mL] | MIC (Aspergillus terreus AT4 [12]) [µg/mL] | Structure (SMILES) | further results
7 | < 1 | < 1 | < 1 | < 1 | < 1 | < 1 | < 1 | < 1 | < 1 | < 1 | < 1 | < 1 | CCCCn1c(C)cc(-c2ccccc2)c1C(=O)C(=O)Nc1ccc(N2CCN(c3cc(C)cc(C)n3)CC2)cc1 [Example 36, 2-(1-Butyl-5-methyl-3-phenyl-1H-pyrrol-2-yl)-N-{4-[4-(4,6-dimethyl-pyridin-2-yl)-piperazin-1-yl]-phenyl}-2-oxo-acetamide] | 
8 | < 1 | < 1 | < 1 | < 1 | < 1 | < 1 | < 1 | < 1 | < 1 | < 1 | < 1 | < 1 | Cc1cc(C)nc(N2CCN(c3ccc(NC(=O)C(=O)c4c(-c5ccccc5)c(F)c(C)n4C)cc3)CC2)c1 [Example 90, N-{4-[4-(4,6-Dimethyl-pyridin-2-yl)-piperazin-1-yl]-phenyl}-2-(4-fluoro-1,5-dimethyl-3-phenyl-1H-pyrrol-2-yl)-2-oxo-acetamide] | 
9 | < 1 | < 1 | < 1 | < 1 | < 1 | < 1 | < 1 | < 1 | < 1 | < 1 | < 1 | < 1 | Cc1ccnc(N2CCN(c3ccc(NC(=O)C(=O)c4c(-c5ccccc5)cc(C)n4C)cc3)CC2)c1 [Example 40, 2-(1,5-Dimethyl-3-phenyl-1H-pyrrol-2-yl)-N-{4-[4-(4-methyl-pyridin-2-yl)-piperazin-1-yl]-phenyl}-2-oxo-acetamide] | 
10 | 1 to 10 (≈ 1.71 to 17.1 µM) | 1 to 10 (≈ 1.71 to 17.1 µM) | 1 to 10 (≈ 1.71 to 17.1 µM) | > 10 | > 10 | > 10 | > 10 | > 10 | > 10 | > 10 | > 10 | > 10 | Cc1cc(C)nc(N2CCN(c3ccc(NC(=O)C(=O)c4c(-c5ccccc5)cc(C)n4Cc4ccccn4)cc3)CC2)c1 [Example 91, N-{4-[4-(4,6-Dimethyl-pyridin-2-yl)-piperazin-1-yl]-phenyl}-2-(5-methyl-3-phenyl-1-pyridin-2-ylmethyl-1H-pyrrol-2-yl)-2-oxo-acetamide] | 
11 | > 10 | 1 to 10 (≈ 3.13 to 31.3 µM) | > 10 | > 10 | > 10 | > 10 | > 10 | > 10 | > 10 | > 10 | > 10 | > 10 | Cc1cc(-c2ccccc2)c(C(=O)C(=O)Nc2ccncc2)n1C [Example 33, 2-(1,5-Dimethyl-3-phenyl-1H-pyrrol-2-yl)-2-oxo-N-pyridin-4-yl-acetamide] | 
12 | < 1 | < 1 | < 1 | < 1 | 1 to 10 (≈ 1.77 to 17.7 µM) | 1 to 10 (≈ 1.77 to 17.7 µM) | 1 to 10 (≈ 1.77 to 17.7 µM) | 1 to 10 (≈ 1.77 to 17.7 µM) | 1 to 10 (≈ 1.77 to 17.7 µM) | 1 to 10 (≈ 1.77 to 17.7 µM) | > 10 | 1 to 10 (≈ 1.77 to 17.7 µM) | CCCOCn1c(C)cc(-c2ccccc2)c1C(=O)C(=O)Nc1ccc(N2CCN(c3cc(C)cc(C)n3)CC2)cc1 [Example 139, N-{4-[4-(4,6-Dimethyl-pyridin-2-yl)-piperazin-1-yl]-phenyl}-2-(5-methyl-3-phenyl-1-propoxymethyl-1H-pyrrol-2-yl)-2-oxo-acetamide] | 
